These results are taken from PMC8187479, “Sugar phosphate activation of the stress sensor eIF2B” (Nature Communications, 2021).

The test deals with T1, eIF2Bα (Homo sapiens, UniProt Q14232).
T1 construct: made in house; host or cells: E. coli BL21(DE3)
T1 sequence (Q14232 1-305): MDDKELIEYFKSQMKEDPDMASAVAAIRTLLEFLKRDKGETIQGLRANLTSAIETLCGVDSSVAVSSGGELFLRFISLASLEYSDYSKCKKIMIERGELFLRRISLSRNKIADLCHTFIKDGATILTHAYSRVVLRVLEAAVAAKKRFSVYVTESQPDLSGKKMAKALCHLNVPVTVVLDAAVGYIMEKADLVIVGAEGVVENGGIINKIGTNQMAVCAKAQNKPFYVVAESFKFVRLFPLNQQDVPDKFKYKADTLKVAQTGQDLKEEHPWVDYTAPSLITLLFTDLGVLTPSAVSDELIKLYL
Briefly: MIDAS (mass spectrometry integrated with equilibrium dialysis) metabolite binding screen. Summed up: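 Hits called at Storey q < 0.1 on z-scores of PCA-corrected log2 fold change between protein and metabolite chambers, quantified by FIA-MS in triplicate.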
(In general: In equilibrium dialysis free small molecules cross a membrane that holds back macromolecules.)

Where [1] appears, read: MIDAS screen, sheet eIF2Ba, metabolites screened in pools 1-4, p-value and q-value given.
Setting [2] is: MIDAS metabolite binding screen with eIF2Bα, sheet "eIF2Ba".

For the compound `O=CNc1ccccc1C(=O)O` [N-Formylanthranilic acid], the “log2(corrected fold change)” value under setting [1] came out at 0.2026.

Consider `C[N+](C)(C)CC=O` [Betaine aldehyde], for which the “log2(corrected fold change)” value under setting [1] was -0.1426.

On to `Nc1nc2c(ncn2[C@@H]2O[C@@H]3COP(=O)(O)O[C@H]3[C@H]2O)c(=O)[nH]1` [Cyclic GMP], for which, under setting [2], the “log2(corrected fold change)” value is 0.01224.

Take `Nc1ccn([C@H]2C[C@H](O)[C@@H](CO)O2)c(=O)n1` [2-Deoxycytidine]: the “log2(corrected fold change)” value under setting [1] worked out at 0.344.

As for `N[C@H](CCSSCC[C@@H](N)C(=O)O)C(=O)O` (racemic) [DL-Homocystine], under setting [1], the “log2(corrected fold change)” value was 0.09463.

Consider `OC[C@H]1O[C@@H](n2cnc3c(O)nc(O)nc32)[C@H](O)[C@@H]1O` [Xanthosine], for which the “log2(corrected fold change)” value under setting [2] stood at 0.0001312.

On to `O=C[C@H](O)[C@@H](O)[C@@H](O)CO` [L-Arabinose_1], for which the “log2(corrected fold change)” value under setting [2] stood at 0.02262.

With `NCCCN` [1,3-Diaminopropane], the “log2(corrected fold change)” value under setting [1] is listed as 0.2387.

As to `Cc1ncc(C[n+]2csc(CCO)c2C)c(N)n1` [Thiamine], the “log2(corrected fold change)” value under setting [2] came out at 0.0196.

Consider `O=P(O)(O)O[C@@H]1[C@H](O)[C@H](O)[C@@H](OP(=O)(O)O)[C@H](OP(=O)(O)O)[C@H]1O` [D-myo-Inositol-1,4,5-triphosphate], for which the “log2(corrected fold change)” value under setting [1] was 0.2026.

On to `O=C(O)c1cc(O)c2cccc(O)c2n1` [Xanthurenic acid], for which, under setting [2], the “log2(corrected fold change)” value is -0.07533.

Regarding `CN(CC(=O)O)C(=N)N` [Creatine], the “log2(corrected fold change)” value under setting [1] came out at 0.06671.

Consider `C[N+](C)(C)CC(O)CC(=O)[O-]` (stereo not shown) [Carnitine], for which the “log2(corrected fold change)” value under setting [1] is -0.03799.

In the case of `O=C[C@H](O)[C@@H](O)[C@@H](O)[C@H](O)CO` [D-Galactose], the “log2(corrected fold change)” value under setting [1] was -0.09045.

In the case of `CC(=O)N[C@@H](C)C(=O)O` [N-Acetyl-L-alanine], under setting [1], the “log2(corrected fold change)” value was 0.07527.

Regarding `C[N+](C)(C)CC=O` [Betaine aldehyde hydrate], the “log2(corrected fold change)” value under setting [1] is recorded as -0.08887.

Turning to `O=c1ccn([C@H]2C[C@H](O)[C@@H](COP(=O)(O)O)O2)c(=O)[nH]1` [2-Deoxyuridine 5-monophosphate], under setting [1], the “log2(corrected fold change)” value was 0.2736.

`CC[C@H](C)[C@H](N)C(=O)O` [L-Isoleucine]: the “log2(corrected fold change)” value under setting [2] was -0.00688.

Consider `O=C(O)Cc1cnc[nH]1` [4-Imidazoleacetic acid], for which, under setting [2], the “log2(corrected fold change)” value turned out to be 0.01796.

For the compound `C[C@@H](O)C=O` [D-Lactaldehyde], the “log2(corrected fold change)” value under setting [2] is -0.01671.

`O=c1ccn([C@@H]2O[C@H](COP(=O)(O)OP(=O)(O)OP(=O)(O)O)[C@@H](O)[C@H]2O)c(=O)[nH]1` [Uridine 5-triphosphate]: the “log2(corrected fold change)” value under setting [2] was -0.0457.

As for `O=C(O)CC[C@@H](O)C(=O)O` [D-Hydroxyglutaric acid], under setting [2], the “log2(corrected fold change)” value is reported as -0.0058.

Consider Stachyose, for which the “log2(corrected fold change)” value under setting [2] is -0.02264.

Consider `Nc1ncnc2c1ncn2[C@H]1C[C@H](O)[C@@H](COP(=O)(O)OP(=O)(O)O)O1` [Deoxyadenosine diphosphate], for which the “log2(corrected fold change)” value under setting [2] is recorded as -0.1103.

With `CC(=O)NCCCC[C@H](N)C(=O)O` [Ne-Acetyl-lysine], the “log2(corrected fold change)” value under setting [2] was -0.03422.

With `NCCC(=O)N[C@@H](Cc1cnc[nH]1)C(=O)O` [L-Carnosine], the “log2(corrected fold change)” value under setting [2] was -0.01554.

As to `CC(O)CC(=O)O` (stereo not shown) [3-Hydroxybutyric acid], the “log2(corrected fold change)” value under setting [1] was found to be 0.07137.

For the compound `CCCCC[C@H](O)/C=C/[C@H]1[C@H](O)CC(=O)[C@@H]1C/C=C\CCCC(=O)O` [Prostaglandin E2], under setting [1], the “log2(corrected fold change)” value worked out at 0.05625.

For `O=C(O)[C@@H]1CCC(O)=N1` [L-Pyroglutamic acid], the “log2(corrected fold change)” value under setting [1] is on record as -0.09309.

Consider `O=C(O)COP(=O)(O)O` [2-Phosphoglycolic acid], for which, under setting [2], the “log2(corrected fold change)” value came out at 0.0426.

Consider `C[C@H](O)[C@@H](O)[C@@H](O)[C@H](O)C=O` [L-Fucose], for which the “log2(corrected fold change)” value under setting [2] is -0.06063.
